This is an account of results in patent US12459899B2, “Isoquinolinone derivatives, method for preparing the same, and pharmaceutical composition for preventing or treating poly(ADP-ribose) polymerase-1-related diseases, comprising the same as active ingredient” (DIGMBIO. INC., priority 2019, dated 2025).

Each structure is given as a SMILES string. Where a name gives a salt, the structure may show the parent alone.

PARP-1 (poly[ADP-ribose] polymerase 1) enzyme, sequence (P09874 whole entry): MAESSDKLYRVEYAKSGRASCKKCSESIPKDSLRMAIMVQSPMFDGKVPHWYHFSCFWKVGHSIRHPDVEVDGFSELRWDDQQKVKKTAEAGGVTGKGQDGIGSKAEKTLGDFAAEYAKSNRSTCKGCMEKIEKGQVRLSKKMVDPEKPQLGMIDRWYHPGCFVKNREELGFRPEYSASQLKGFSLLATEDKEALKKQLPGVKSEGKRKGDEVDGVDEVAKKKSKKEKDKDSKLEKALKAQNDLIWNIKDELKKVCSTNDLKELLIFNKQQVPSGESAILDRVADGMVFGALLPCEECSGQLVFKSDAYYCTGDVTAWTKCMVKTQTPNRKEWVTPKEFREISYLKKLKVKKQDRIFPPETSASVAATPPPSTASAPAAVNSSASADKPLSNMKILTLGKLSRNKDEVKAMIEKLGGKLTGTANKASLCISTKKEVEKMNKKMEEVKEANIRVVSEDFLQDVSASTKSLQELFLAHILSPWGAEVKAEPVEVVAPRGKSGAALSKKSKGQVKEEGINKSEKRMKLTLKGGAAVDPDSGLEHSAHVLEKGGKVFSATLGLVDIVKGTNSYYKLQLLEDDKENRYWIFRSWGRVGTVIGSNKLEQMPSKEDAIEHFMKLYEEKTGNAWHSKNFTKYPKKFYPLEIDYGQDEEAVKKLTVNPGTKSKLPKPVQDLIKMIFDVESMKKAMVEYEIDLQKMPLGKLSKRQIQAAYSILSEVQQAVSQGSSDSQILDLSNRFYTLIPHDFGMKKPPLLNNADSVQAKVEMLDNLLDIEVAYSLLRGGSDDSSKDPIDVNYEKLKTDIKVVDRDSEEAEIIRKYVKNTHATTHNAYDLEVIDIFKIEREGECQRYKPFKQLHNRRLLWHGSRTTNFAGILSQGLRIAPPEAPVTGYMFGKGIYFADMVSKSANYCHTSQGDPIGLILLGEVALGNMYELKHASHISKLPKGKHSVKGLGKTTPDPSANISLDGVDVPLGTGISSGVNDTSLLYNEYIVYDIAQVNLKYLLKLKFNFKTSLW

The first experiment addresses PARP-1 (poly[ADP-ribose] polymerase 1) enzyme (Homo sapiens (Human), UniProt P09874). Nature of the experiment: PARP-1 (poly[ADP-ribose] polymerase 1) enzyme inhibitory ability, Trevigen assay kit. The class given is biochemical. Particulars: 1 nM compound; read-out: PAR P-1 Inhibitory ability at 1 nM. The method, then:
In order to evaluate the PARP-1 (poly[ADP-ribose] polymerase 1) enzyme inhibitory ability of the compounds according to the present invention, an experiment was conducted as follows.
Specifically, in order to evaluate the PARP-1 (poly[ADP-ribose] polymerase 1) enzyme inhibitory ability of the compounds of Examples 1 to 276 according to the present invention, the PARP-1 (poly[ADP-ribose] polymerase 1) activity was investigated in the following manner using an assay kit purchased from Trevigen, Inc. (Catalog number: 4677-096-K). 50 μL of 1×PARP buffer (provided by Trevigen's kit) was dispensed into a 96-well plate coated with histones per each well, and then rehydrated for 30 minutes. After removing the 1×PARP buffer present in the well, PARP-1 (poly[ADP-ribose] polymerase 1) enzyme (0.5 unit/well) and 1 μM concentration or various concentrations of the compounds of Example 1 to 276 were added at room temperature and reacted for 10 minutes. Thereafter, each well was treated with 25 μL of 1×PARP cocktail (biotinylated NAD, activated DNA, provided by Trevigen's kit), and then reacted at room temperature for 1 hour. After the reaction was completed, each well was washed twice with PBS (7.5 mM Na2HPO4, 2.5 mM NaH2PO4, 145 mM NaCl) containing 0.1% triton X-100, and washed twice with PBS. Then, 50 μL of strep-HRP (streptavidin-linked peroxidase) was added and reacted at room temperature for 1 hour, and then washed twice with PBS containing 0.1% triton X-100, and washed twice with PBS. After removing all PBS, 50 μL of TACS-sapphire, a substrate, was added, and reacted at room temperature for 15 minutes while blocking the light. After the reaction was terminated by treatment with 50 μL of 5% phosphoric acid to each well, the absorbance was measured at 450 nm using a microplate reader Victor3 from PerkinElmer, Inc. to quantify the value.
Consider `N#Cc1ccc(N2CCN(CCCc3cc4cccc(F)c4c(=O)[nH]3)CC2)cn1` [Example 2, 5-(4-(3-(8-fluoro-1-oxo-1,2-dihydroisoquinolin-3-yl)propyl)piperazin-1-yl)picolinonitrile], for which the inhibition at 0.001 µM is under 50%.

With `N#Cc1ccc(N2CCN(CCCc3cc4cccc(F)c4c(=O)[nH]3)CC2)nc1` [Example 3, 6-(4-(3-(8-fluoro-1-oxo-1,2-dihydroisoquinolin-3-yl)propyl)piperazin-1-yl)nicotinonitrile], the inhibition at 0.001 µM was under 50%. With `O=c1[nH]c(CCCN2CCN(c3ccc(C(F)(F)F)cc3)CC2)cc2cccc(F)c12` [Example 4, 8-fluoro-3-(3-(4-(4-(trifluoromethyl)phenyl)piperazin-1-yl)propyl)isoquinolin-1(2H)-one], the inhibition at 0.001 µM was under 50%. Same read-out and setting: the same measure for `N#Cc1ccc(N2CCN(CCCc3cc4cccc(F)c4c(=O)[nH]3)CC2)cc1F` [Example 5, 2-fluoro-4-(4-(3-(8-fluoro-1-oxo-1,2-dihydroisoquinolin-3-yl)propyl)piperazin-1-yl)benzonitrile]: under 50%; for `N#Cc1ccc(N2CCN(CCCc3cc4cccc(F)c4c(=O)[nH]3)CC2)cc1` [Example 6, 4-(4-(3-(8-fluoro-1-oxo-1,2-dihydroisoquinolin-3-yl)propyl)piperazin-1-yl)benzonitrile hydrochloride]: 50 to 80%; for `N#Cc1ccc(N2CC3CCC(C2)N3CCCc2cc3cccc(F)c3c(=O)[nH]2)cc1` [Example 7, 4-(8-(3-(8-fluoro-1-oxo-1,2-dihydroisoquinolin-3-yl)propyl)-3,8-diazabicyclo[3.2.1]octan-3-yl)benzonitrile]: under 50%. Consider `N#Cc1ccc(N2CCN(CCCc3cc4ccc(F)cc4c(=O)[nH]3)CC2)cc1` [Example 8, 4-(4-(3-(7-fluoro-1-oxo-1,2-dihydroisoquinolin-3-yl)propyl)piperazin-1-yl)benzonitrile], for which the inhibition at 0.001 µM was in the range of 50 to 80%. `O=c1[nH]c(CCCN2CCN(c3ccc(C(F)(F)F)cc3)CC2)cc2ccc(F)cc12` [Example 9, 7-fluoro-3-(3-(4-(4-(trifluoromethyl)phenyl)piperazin-1-yl)propyl)isoquinolin-1(2H)-one]: the inhibition at 0.001 µM is under 50%.

For the molecule `N#Cc1ccc(N2CCN(CCCc3cc4ccc(F)cc4c(=O)[nH]3)CC2)cn1` [Example 10, 5-(4-(3-(7-fluoro-1-oxo-1,2-dihydroisoquinolin-3-yl)propyl)piperazin-1-yl)picolinonitrile], the inhibition at 0.001 µM lay in the range of 50 to 80%. The same measure, in the same setting: next, `O=c1[nH]c(CCCN2CCN(c3cccc([N+](=O)[O-])c3)CC2)cc2ccc(F)cc12` [Example 11, 7-fluoro-3-(3-(4-(3-nitrophenyl)piperazin-1-yl)propyl)isoquinolin-1(2H)-one]: under 50%; `O=c1[nH]c(CCCN2CCN(c3ncccn3)CC2)cc2ccc(F)cc12` [Example 13, 7-fluoro-3-(3-(4-(pyrimidin-2-yl)piperazin-1-yl)propyl)isoquinolin-1(2H)-one]: under 50%; `O=c1[nH]c(CCCN2CCN(c3cccc(OC(F)(F)F)c3)CC2)cc2ccc(F)cc12` [Example 16, 7-fluoro-3-(3-(4-(3-(trifluoromethoxy)phenyl)piperazin-1-yl)propyl)isoquinolin-1(2H)-one]: under 50%.

Regarding `O=c1[nH]c(CCCN2CCN(c3cccc(Cl)c3)CC2)cc2ccc(F)cc12` [Example 17, 3-(3-(4-(3-chlorophenyl)piperazin-1-yl)propyl)-7-fluoroisoquinolin-1(2H)-one], the inhibition at 0.001 µM was under 50%. `COC(=O)c1cccc(N2CCN(CCCc3cc4ccc(F)cc4c(=O)[nH]3)CC2)c1` [Example 18, methyl 3-(4-(3-(7-fluoro-1-oxo-1,2-dihydroisoquinolin-3-yl)propyl)piperazin-1-yl)benzoate]: the inhibition at 0.001 µM is under 50%.

On to `O=C(O)c1cccc(N2CCN(CCCc3cc4ccc(F)cc4c(=O)[nH]3)CC2)c1` [Example 19, 3-(4-(3-(7-fluoro-1-oxo-1,2-dihydroisoquinolin-3-yl)propyl)piperazin-1-yl)benzoic acid], for which the inhibition at 0.001 µM was under 50%.

As for `CC(=O)Nc1cccc(N2CCN(CCCc3cc4ccc(F)cc4c(=O)[nH]3)CC2)c1` [Example 20, N-(3-(4-(3-(7-fluoro-1-oxo-1,2-dihydroisoquinolin-3-yl)propyl)piperazin-1-yl)phenyl)acetamide], the inhibition at 0.001 µM is under 50%. Same read-out and setting: the same measure for `Cc1ccc(F)c2c(=O)[nH]c(CCCN3CCN(c4ccc(C#N)nc4)CC3)cc12` [Example 21, 5-(4-(3-(8-fluoro-5-methyl-1-oxo-1,2-dihydroisoquinolin-3-yl)propyl)piperazin-1-yl)picolinonitrile]: under 50%; for `Cc1ccc(F)c2c(=O)[nH]c(CCCN3CCN(c4ccc(C#N)cn4)CC3)cc12` [Example 22, 6-(4-(3-(8-fluoro-5-methyl-1-oxo-1,2-dihydroisoquinolin-3-yl)propyl)piperazin-1-yl)nicotinonitrile]: under 50%. Still for that read-out and setting: the same measure for `Cc1ccc(F)c2c(=O)[nH]c(CCCN3CCN(c4ccc(C#N)cc4)CC3)cc12` [Example 23, 4-(4-(3-(8-fluoro-5-methyl-1-oxo-1,2-dihydroisoquinolin-3-yl)propyl)piperazin-1-yl)benzonitrile]: under 50%; for `Cc1ccc(F)c2c(=O)[nH]c(CCCN3CCN(c4ccccn4)CC3)cc12` [Example 24, 8-fluoro-5-methyl-3-(3-(4-(pyridin-2-yl)piperazin-1-yl)propyl)isoquinolin-1(2H)-one]: under 50%; for `Cc1ccc(F)c2c(=O)[nH]c(CCCN3CCN(c4ncccn4)CC3)cc12` [Example 25, 8-fluoro-5-methyl-3-(3-(4-(pyrimidin-2-yl)piperazin-1-yl)propyl)isoquinolin-1(2H)-one]: under 50%. Same read-out and setting: next, `Cc1ccc(F)c2c(=O)[nH]c(CCCN3CCN(c4ccc(C#N)cc4F)CC3)cc12` [Example 26, 3-fluoro-4-(4-(3-(8-fluoro-5-methyl-1-oxo-1,2-dihydroisoquinolin-3-yl)propyl)piperazin-1-yl)benzonitrile]: 50 to 80%; `Cc1ccc(F)c2c(=O)[nH]c(CCCN3CCN(c4ccc(C(F)(F)F)cc4)CC3)cc12` [Example 27, 8-fluoro-5-methyl-3-(3-(4-(4-(trifluoromethyl)phenyl)piperazin-1-yl)propyl)isoquinolin-1(2H)-one]: under 50%. As to `Cc1ccc(F)c2c(=O)[nH]c(CCCN3CCN(c4ccccc4C#N)CC3)cc12` [Example 28, 2-(4-(3-(8-fluoro-5-methyl-1-oxo-1,2-dihydroisoquinolin-3-yl)propyl)piperazin-1-yl)benzonitrile], the inhibition at 0.001 µM was under 50%.

The experiment is the same for the next values; noted with them: PARP-1 enzyme activity.
In the case of `N#Cc1ccc(N2CCN(CCCc3cc4ccc(F)cc4c(=O)[nH]3)CC2)cc1` [Example 8, 4-(4-(3-(7-fluoro-1-oxo-1,2-dihydroisoquinolin-3-yl)propyl)piperazin-1-yl)benzonitrile], the IC50 came out at 0.72 nM. On the same count and under the same terms, the same measure for `O=c1[nH]c(CCCN2CCN(c3ccc(F)cc3)CC2)cc2ccc(F)cc12` [Example 15, 7-fluoro-3-(3-(4-(4-fluorophenyl)piperazin-1-yl)propyl)isoquinolin-1(2H)-one]: 4.01 nM; for `Cc1ccc(F)c2c(=O)[nH]c(CCCN3CCN(c4ccc(C#N)nc4)CC3)cc12` [Example 21, 5-(4-(3-(8-fluoro-5-methyl-1-oxo-1,2-dihydroisoquinolin-3-yl)propyl)piperazin-1-yl)picolinonitrile]: 1.09 nM.

Consider `Cc1ccc(F)c2c(=O)[nH]c(CCCN3CCN(c4ccc(C#N)cn4)CC3)cc12` [Example 22, 6-(4-(3-(8-fluoro-5-methyl-1-oxo-1,2-dihydroisoquinolin-3-yl)propyl)piperazin-1-yl)nicotinonitrile], for which the IC50 worked out at 1.2 nM. `Cc1ccc(F)c2c(=O)[nH]c(CCCN3CCN(c4ccc(C#N)cc4)CC3)cc12` [Example 23, 4-(4-(3-(8-fluoro-5-methyl-1-oxo-1,2-dihydroisoquinolin-3-yl)propyl)piperazin-1-yl)benzonitrile] displayed an IC50 of 0.76 nM.

The same experiment, now with this note: PARP-1 enzyme activity; hydrochloride.
The molecule `N#Cc1ccc(N2CCN(CCCc3cc4cccc(F)c4c(=O)[nH]3)CC2)cc1` [Example 6, 4-(4-(3-(8-fluoro-1-oxo-1,2-dihydroisoquinolin-3-yl)propyl)piperazin-1-yl)benzonitrile hydrochloride] yielded a concentration for half-maximal inhibition (IC50) of 0.41 nM.
